Data on two compounds can be found in patent publication US20040038950A1, “Pharmaceutical composition for treating IL-1 related diseases or disorders” (priority 2002, published 2004).

One assay has as its system type II collagen mRNA. The experiment in a line: Osteoarthritic rabbit model (ACLT), intraarticular injection, RT-PCR of type II collagen. The assay is classed as in vivo. Conditions: rabbit ACLT knee, intraarticular once a week for 5 weeks. The protocol: (§1) Mature New Zealand White rabbits underwent bilateral anterior cruciate ligament transection (ACLT). ACLT was performed using a medial arthrotomy method. Postoperatively the animals were permitted cage (60 cm×60 cm×40 cm) activity without immobilization. The right knees received via intraartiticular injection DHEA, DHEA-pyruvate or DHEA+HA, 4 weeks after ACLT and once a week for 5 weeks. The left knees received 0.3 ml of intraarticular injection with control solution (carrier solution). After 9 weeks from ACLT, the animas were sacrificed.
(§2) Synovium (entire tissue) around the infrapatellar fat pads and cartilage tissue from the femoral condyle and the tibial plateau were harvested. The subsequent experimental procedure was the same as described in Test Example IV.

The subject of a further assay is TIMP-1 mRNA. The experiment in a line: Osteoarthritic rabbit model (ACLT), intraarticular injection, RT-PCR of TIMP-1. The format is in vivo. The settings on record: rabbit ACLT knee, intraarticular once a week for 5 weeks. As to the method: as §1, §2
The next assay relates to MMP-1 mRNA. The assay is described as follows: Effect of IL-1β on MMP-1 mRNA expression in chondrocyte culture, RT-PCR. The settings on record: 1000 μg/ml of IL-1β, 3 days. The assay is classed as cell-based, human. The protocol: (§3) Sixteen hours prior to a treatment, the complete culture medium was replaced with a serum-free medium. Chondrocyte alginate bead cultures were then treated with IL-1β ([…], (Calbiochem) and DHEA (0, 10, 50 or 100 μM) for 3 days.
(§4) Total RNA from chondrocytes was extracted using RNeasy Mini Kit (QIAGEN). Reverse transcription from 1 μg of total RNA was conducted using First Strand cDNA Synthesis Kit (MBI Fermentas) according to manufacturer's recommendation with random hexamers. The resulting cDNA was then amplified by polymerase chain reaction using AccuPower PCR Premix (Bioneer, Korea) in a final volume of 20 μl using three thermocycler temperatures (30 sec at […], 30 sec at 60° C., and 30 sec at […]). All reactions were determined to be in the linear range of amplification with the cycle number ranging from 14 to 30. The PCR products were analyzed by separation on a 2% agarose gel followed by ethidium bromide staining. Following electrophoresis, photographs were taken and analyzed using a densitometric program (TINA; Raytest Isotopenmeβgerate, Germany). Integrated density values for the genes in question were then normalized to the glyceraldehyde-3-phosphate dehydrogenase (GAPDH) values for a semiquantitative assessment. After normalizing with respect to GAPDH, percentage increase or decrease was determined. Each experiment was repeated at least three times. […]

The next assay has as its system MMP-3 mRNA. The experiment in a line: Effect of IL-1β on MMP-3 mRNA expression in chondrocyte culture, RT-PCR. The format is cell-based, human. Conditions: 100 μg/ml of IL-1β, 3 days. As to the method: as §3, §4

On to `CC(=O)C(=O)O[C@H]1CC[C@@]2(C)C(=CC[C@@H]3[C@@H]2CC[C@]2(C)C(=O)CC[C@@H]32)C1` [DHEA-pyruvate, DHEA-Pyruvate], for which the “expression of type II collagen” value in the assay on type II collagen mRNA was “increased”. Besides, the “expression of TIMP-1” value with TIMP-1 mRNA is “increased”.
For the compound “IL-1β: recombinant human interleukin-1β (Calbiochem), used to induce MMP mRNA in chondrocytes”, in the assay with MMP-1 mRNA, the “MMP-1 mRNA, increase” value stood at 470%. Besides, the “MMP-3 mRNA, increase” value in the assay on MMP-3 mRNA is given as 310%.
